Activity calls are given as the source filed them.
Assays:
[1] = molecular target: T1, Mannose-6-phosphate isomerase (Homo sapiens, UniProt P34949); experiment: MPI inhibition at elevated mannose 6-phosphate – biochemical, fluorescence intensity, high mannose 6-phosphate, primary screen (AID 1220)
T1 sequence (P34949 whole entry): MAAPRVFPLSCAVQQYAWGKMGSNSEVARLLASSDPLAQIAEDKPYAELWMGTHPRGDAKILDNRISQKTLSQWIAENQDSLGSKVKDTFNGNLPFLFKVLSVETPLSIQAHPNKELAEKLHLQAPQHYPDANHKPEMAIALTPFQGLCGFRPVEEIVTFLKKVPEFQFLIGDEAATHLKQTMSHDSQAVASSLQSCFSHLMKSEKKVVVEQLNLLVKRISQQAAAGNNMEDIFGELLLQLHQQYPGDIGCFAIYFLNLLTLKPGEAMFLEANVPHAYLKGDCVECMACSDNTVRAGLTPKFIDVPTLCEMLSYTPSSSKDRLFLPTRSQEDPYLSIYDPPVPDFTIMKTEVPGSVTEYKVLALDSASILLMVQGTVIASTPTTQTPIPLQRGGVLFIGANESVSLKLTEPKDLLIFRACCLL

[2] = molecular target: T2, Caspase-3 (Homo sapiens, UniProt P42574); assay type: functional;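 note: Dose-response selectivity test against caspase-3 for candidate inhibitors of sentrin-specific proteases (SENPs)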
T2 sequence (P42574 whole entry): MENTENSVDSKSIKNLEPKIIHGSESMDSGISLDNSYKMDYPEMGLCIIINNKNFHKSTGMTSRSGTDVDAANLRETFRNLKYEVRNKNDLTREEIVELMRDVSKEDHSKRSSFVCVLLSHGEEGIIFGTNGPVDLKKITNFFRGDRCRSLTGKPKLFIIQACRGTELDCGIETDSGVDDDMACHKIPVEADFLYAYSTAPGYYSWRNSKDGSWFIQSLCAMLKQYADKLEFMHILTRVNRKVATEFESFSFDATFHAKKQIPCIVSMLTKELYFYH

[3] = molecular target: T3, Microphthalmia-associated transcription factor (Homo sapiens, UniProt O75030); experiment: reducers of TRPM1 reporter luminescence, concentration series – cell-based, SK-MEL-5, cherry-picked, set 3, MITF inhibitor project, dose response (AID 493073); assay type: functional;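 note: SK-MEL-5 melanoma cells with luciferase driven by the MITF target TRPM1 promoter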
T3 sequence (O75030 whole entry): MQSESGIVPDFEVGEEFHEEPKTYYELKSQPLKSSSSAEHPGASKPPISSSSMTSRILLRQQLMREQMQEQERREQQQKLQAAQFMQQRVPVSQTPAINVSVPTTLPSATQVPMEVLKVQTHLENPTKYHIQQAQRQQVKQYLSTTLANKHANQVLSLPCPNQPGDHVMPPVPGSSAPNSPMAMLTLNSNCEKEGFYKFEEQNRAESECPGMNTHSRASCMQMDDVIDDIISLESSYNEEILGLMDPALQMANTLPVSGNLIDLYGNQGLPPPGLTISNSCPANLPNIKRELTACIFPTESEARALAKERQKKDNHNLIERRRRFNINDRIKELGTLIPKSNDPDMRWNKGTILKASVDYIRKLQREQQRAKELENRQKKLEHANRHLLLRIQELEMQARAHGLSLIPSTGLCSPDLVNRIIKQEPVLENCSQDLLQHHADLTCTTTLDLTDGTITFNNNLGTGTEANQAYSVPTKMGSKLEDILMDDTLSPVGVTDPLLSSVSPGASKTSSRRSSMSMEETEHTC

[4] = molecular target: Dual specificity tyrosine-phosphorylation-regulated kinase 1B (Homo sapiens, UniProt Q9Y463); experiment: Navigating the Kinome. Panel member name: DYRK1B; assay type: functional
[5] = molecular target: Cyclin-dependent kinase 7 (Homo sapiens, UniProt P50613); assay type: functional;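 note: value comes from a kinome-wide kinase profiling panel in which CDK7 is one member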
[6] = molecular target: Dual specificity protein kinase CLK4 (Homo sapiens, UniProt Q9HAZ1); assay type: functional
[7] = molecular target: Dual specificity tyrosine-phosphorylation-regulated kinase 1A (Homo sapiens, UniProt Q13627); assay type: functional;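 note: measured against DYRK1A as one member of a broad kinome profiling panel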
[8] = molecular target: Inhibitor of nuclear factor kappa-B kinase subunit epsilon (Homo sapiens, UniProt Q14164); experiment: Navigating the Kinome. Panel member name: IKBKE; assay type: functional
[9] = molecular target: Calcium/calmodulin-dependent protein kinase type II subunit alpha (Homo sapiens, UniProt Q9UQM7); experiment: Navigating the Kinome. Panel member name: CAMK2A; assay type: functional
[10] = molecular target: Mitogen-activated protein kinase 14 (Homo sapiens, UniProt Q16539); assay type: functional;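 note: part of a kinome-wide panel, MAPK14 entry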
[11] = molecular target: Testis-specific serine/threonine-protein kinase 2 (Homo sapiens, UniProt Q96PF2); assay type: functional;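 note: part of the Navigating the Kinome panel, target entry STK22B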
[12] = molecular target: Casein kinase II subunit alpha (Homo sapiens, UniProt P68400); assay type: functional
[13] = molecular target: Tyrosine-protein kinase ITK/TSK (Homo sapiens, UniProt Q08881); assay type: functional;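 note: affinity for ITK measured as one member of a broad kinase panel profiling binding across the kinome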
[14] = molecular target: LIM domain kinase 1 (Homo sapiens, UniProt P53667); experiment: Navigating the Kinome. Panel member name: LIMK1; assay type: functional
[15] = molecular target: Testis-specific serine/threonine-protein kinase 1 (Homo sapiens, UniProt Q9BXA7); assay type: functional
[16] = molecular target: Proto-oncogene tyrosine-protein kinase Src (Homo sapiens, UniProt P12931); assay type: functional;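 note: SRC entry within a kinome-wide kinase profiling panel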
[17] = molecular target: Inhibitor of nuclear factor kappa-B kinase subunit alpha (Homo sapiens, UniProt O15111); assay type: functional
[18] = molecular target: Receptor tyrosine-protein kinase erbB-2 (Homo sapiens, UniProt P04626); experiment: Navigating the Kinome. Panel member name: ERBB2; assay type: functional
[19] = molecular target: Serine/threonine-protein kinase Chk1 (Homo sapiens, UniProt O14757); assay type: functional;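 note: measured as one member of a kinome-wide kinase profiling panel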
[20] = molecular target: Dual specificity tyrosine-phosphorylation-regulated kinase 4 (Homo sapiens, UniProt Q9NR20); assay type: functional
[21] = molecular target: Homeodomain-interacting protein kinase 4 (Homo sapiens, UniProt Q8NE63); assay type: functional
[22] = molecular target: Serine/threonine-protein kinase pim-2 (Homo sapiens, UniProt Q9P1W9); assay type: functional;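 note: value comes from a broad kinase panel profiling study in which PIM2 was one of the panel members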
[23] = molecular target: Lymphokine-activated killer T-cell-originated protein kinase (Homo sapiens, UniProt Q96KB5); assay type: functional;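 note: value comes from a kinase panel screen in which TOPK was one of the panel members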
[24] = molecular target: Inhibitor of nuclear factor kappa-B kinase subunit beta (Homo sapiens, UniProt O14920); assay type: functional
[25] = molecular target: Tyrosine-protein kinase receptor UFO (Homo sapiens, UniProt P30530); assay type: functional
[26] = viability of HCT116 lacking mutant beta-catenin – cell-based, human colon tumor, dose response (AID 1045); assay type: functional;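 note: HCT116 colon tumor cells with beta catenin knocked out; cells exposed to compound for 60 hours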
[27] = HEK-293T viability loss after treatment – luminescence, T-cell screen hits, cytotoxicity control for TCR NF-kB inhibitor project, dose response (AID 489026); assay type: functional, cell-based;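 note: cells exposed to compound about 14 hours before the viability readout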
[28] = molecular target: Nonstructural protein 1 (Influenza A virus, UniProt Q194T2); assay type: functional, Influenza A virus (A/California/07/2009(H1N1))
Chain of Nonstructural protein 1 (Q194T2 whole entry): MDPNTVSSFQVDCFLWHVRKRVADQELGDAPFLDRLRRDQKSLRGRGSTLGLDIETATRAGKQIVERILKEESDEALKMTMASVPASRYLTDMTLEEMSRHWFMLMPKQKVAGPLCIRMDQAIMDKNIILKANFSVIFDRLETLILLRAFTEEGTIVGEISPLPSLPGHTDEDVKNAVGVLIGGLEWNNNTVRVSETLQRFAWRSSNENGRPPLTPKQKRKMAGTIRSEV

Chain of Serine/threonine-protein kinase Chk1 (O14757 whole entry): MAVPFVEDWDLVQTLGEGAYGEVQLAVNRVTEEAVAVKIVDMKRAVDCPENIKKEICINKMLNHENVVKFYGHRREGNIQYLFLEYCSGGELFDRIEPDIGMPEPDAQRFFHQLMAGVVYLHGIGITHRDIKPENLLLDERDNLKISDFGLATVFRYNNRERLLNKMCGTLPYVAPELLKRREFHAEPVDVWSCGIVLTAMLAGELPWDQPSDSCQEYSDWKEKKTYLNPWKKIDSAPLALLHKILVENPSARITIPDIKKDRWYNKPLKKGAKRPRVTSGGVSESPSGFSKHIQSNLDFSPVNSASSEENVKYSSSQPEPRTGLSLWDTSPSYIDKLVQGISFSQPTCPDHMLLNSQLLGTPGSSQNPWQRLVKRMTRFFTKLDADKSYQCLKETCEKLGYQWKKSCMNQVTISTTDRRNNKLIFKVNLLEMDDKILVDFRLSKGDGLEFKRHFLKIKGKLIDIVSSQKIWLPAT
Chain of Inhibitor of nuclear factor kappa-B kinase subunit epsilon (Q14164 whole entry): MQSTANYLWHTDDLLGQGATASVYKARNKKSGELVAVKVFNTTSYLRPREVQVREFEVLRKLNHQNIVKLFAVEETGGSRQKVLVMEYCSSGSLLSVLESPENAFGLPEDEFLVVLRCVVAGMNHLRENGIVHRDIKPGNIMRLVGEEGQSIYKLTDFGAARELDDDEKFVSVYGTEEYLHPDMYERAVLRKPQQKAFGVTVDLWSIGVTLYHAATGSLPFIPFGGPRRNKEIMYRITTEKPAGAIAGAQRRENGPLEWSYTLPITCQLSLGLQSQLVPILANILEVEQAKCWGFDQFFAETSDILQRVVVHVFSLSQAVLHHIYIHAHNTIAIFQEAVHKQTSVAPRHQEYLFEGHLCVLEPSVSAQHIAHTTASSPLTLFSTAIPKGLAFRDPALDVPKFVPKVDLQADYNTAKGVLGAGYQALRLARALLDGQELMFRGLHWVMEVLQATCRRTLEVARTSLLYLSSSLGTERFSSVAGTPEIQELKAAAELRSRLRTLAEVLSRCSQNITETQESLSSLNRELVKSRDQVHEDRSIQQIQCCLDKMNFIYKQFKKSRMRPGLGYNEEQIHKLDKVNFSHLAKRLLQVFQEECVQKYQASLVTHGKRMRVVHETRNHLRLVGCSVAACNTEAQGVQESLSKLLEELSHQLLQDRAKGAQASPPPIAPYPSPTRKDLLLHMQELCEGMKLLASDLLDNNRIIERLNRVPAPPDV
Chain of Casein kinase II subunit alpha (P68400 whole entry): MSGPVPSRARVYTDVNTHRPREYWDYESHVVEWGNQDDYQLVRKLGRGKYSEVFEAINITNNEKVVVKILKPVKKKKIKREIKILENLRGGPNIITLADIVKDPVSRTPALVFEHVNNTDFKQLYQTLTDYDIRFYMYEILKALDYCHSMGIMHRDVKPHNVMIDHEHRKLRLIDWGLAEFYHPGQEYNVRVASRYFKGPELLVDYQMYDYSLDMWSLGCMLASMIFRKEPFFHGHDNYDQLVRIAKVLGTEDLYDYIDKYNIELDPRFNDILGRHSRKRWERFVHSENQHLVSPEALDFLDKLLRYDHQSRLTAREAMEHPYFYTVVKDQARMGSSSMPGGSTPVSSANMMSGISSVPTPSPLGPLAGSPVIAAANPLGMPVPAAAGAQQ
Chain of Serine/threonine-protein kinase pim-2 (Q9P1W9 whole entry): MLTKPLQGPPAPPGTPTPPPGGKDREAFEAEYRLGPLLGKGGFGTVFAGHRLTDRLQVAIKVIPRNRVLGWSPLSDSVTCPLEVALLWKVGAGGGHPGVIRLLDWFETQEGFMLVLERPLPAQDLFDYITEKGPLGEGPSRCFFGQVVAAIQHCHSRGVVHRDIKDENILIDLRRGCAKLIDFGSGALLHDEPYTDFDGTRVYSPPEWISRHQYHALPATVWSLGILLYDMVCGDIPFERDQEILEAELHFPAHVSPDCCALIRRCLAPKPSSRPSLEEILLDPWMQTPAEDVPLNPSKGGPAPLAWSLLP
Chain of Testis-specific serine/threonine-protein kinase 1 (Q9BXA7 whole entry): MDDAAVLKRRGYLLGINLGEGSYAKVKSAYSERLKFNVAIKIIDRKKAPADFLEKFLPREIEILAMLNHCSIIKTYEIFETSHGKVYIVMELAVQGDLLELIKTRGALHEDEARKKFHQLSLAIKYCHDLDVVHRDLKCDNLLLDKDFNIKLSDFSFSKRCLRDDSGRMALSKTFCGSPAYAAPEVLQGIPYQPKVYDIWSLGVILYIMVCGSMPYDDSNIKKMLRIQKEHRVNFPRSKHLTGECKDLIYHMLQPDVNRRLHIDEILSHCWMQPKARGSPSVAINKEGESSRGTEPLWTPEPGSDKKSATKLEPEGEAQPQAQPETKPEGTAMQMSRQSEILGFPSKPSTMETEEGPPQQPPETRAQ
Chain of Calcium/calmodulin-dependent protein kinase type II subunit alpha (Q9UQM7 whole entry): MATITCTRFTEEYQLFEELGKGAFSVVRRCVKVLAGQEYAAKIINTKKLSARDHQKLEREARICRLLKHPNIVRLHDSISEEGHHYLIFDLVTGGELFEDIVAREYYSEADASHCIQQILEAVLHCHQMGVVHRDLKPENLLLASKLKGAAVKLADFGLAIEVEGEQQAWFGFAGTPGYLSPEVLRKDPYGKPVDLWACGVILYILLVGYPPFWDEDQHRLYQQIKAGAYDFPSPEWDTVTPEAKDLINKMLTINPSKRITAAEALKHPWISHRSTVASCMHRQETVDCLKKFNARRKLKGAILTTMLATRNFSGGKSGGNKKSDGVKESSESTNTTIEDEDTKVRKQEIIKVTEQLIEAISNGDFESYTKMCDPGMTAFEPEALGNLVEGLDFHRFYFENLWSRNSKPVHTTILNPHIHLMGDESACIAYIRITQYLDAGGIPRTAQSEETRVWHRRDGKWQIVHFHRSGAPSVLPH
Chain of Proto-oncogene tyrosine-protein kinase Src (P12931 2-536 limits assumed): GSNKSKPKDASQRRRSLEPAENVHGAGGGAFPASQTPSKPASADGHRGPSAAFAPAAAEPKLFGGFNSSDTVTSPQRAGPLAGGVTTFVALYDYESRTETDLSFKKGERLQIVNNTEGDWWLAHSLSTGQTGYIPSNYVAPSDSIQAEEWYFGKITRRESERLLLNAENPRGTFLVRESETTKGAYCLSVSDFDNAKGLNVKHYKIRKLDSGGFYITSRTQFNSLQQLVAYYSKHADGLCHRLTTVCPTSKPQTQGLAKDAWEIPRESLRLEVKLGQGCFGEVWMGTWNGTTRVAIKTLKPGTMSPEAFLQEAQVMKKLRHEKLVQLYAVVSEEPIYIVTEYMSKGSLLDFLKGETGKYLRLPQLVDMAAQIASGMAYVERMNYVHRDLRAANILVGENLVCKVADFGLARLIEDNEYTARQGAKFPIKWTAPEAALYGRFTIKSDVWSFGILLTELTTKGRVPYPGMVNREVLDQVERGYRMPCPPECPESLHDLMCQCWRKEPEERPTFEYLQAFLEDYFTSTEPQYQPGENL
Chain of Receptor tyrosine-protein kinase erbB-2 (P04626 whole entry): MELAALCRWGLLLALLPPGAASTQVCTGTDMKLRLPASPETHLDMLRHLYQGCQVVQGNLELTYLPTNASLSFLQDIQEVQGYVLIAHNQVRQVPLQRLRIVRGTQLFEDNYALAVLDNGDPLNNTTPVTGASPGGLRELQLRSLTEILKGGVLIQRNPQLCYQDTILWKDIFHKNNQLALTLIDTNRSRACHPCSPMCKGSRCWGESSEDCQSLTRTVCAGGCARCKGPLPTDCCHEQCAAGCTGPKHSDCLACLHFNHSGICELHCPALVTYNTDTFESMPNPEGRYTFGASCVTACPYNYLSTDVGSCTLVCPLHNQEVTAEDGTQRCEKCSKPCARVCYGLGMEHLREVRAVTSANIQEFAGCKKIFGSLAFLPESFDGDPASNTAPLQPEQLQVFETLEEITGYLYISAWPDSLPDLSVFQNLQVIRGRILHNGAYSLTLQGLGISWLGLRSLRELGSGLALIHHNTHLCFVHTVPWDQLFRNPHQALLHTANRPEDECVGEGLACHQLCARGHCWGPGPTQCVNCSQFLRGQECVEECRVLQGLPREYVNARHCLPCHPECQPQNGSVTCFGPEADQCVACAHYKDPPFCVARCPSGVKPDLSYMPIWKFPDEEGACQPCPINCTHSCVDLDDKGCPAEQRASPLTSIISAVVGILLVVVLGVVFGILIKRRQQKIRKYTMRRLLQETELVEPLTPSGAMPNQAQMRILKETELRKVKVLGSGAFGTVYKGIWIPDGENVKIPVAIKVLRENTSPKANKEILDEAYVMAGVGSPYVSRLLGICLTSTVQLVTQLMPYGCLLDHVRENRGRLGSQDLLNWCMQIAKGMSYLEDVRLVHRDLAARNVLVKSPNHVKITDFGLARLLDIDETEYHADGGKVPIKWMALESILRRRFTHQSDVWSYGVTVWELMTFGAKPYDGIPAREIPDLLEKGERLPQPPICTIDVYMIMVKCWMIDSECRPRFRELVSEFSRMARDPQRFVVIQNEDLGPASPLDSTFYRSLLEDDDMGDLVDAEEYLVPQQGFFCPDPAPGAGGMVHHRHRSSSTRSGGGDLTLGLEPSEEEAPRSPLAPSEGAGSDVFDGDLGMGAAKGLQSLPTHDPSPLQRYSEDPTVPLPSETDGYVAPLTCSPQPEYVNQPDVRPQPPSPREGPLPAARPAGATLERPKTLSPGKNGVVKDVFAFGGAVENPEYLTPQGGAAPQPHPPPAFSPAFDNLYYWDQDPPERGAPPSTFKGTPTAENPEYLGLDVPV

Cc1cc(C)c[n+](C2=C([N-]S(=O)(=O)c3cccs3)C(=O)c3ccccc3C2=O)c1
> 50 µM (not active): IC50 [1]
active: IC50 [2] 81.9 µM | AC50 [3] 2.95 µM

CCn1c(-c2nonc2N)nc2cncc(C(=O)N3CCC(N)C3)c21 (centres undefined)
active: Ki [4] 0.0316 µM | Ki [5] 2.51 µM | Ki [6] 0.0631 µM | Ki [7] 0.1 µM
inactive: Ki [8] > 3.16 µM | Ki [9] > 7.94 µM | Ki [10] > 3.98 µM

Cc1[nH]nc2ccc(-c3cncc(OCC(N)Cc4c[nH]c5ccccc45)c3)cc12 (centres undefined)
active: Ki [14] 0.794 µM | Ki [15] 0.501 µM | Ki [17] 0.316 µM | Ki [20] 0.251 µM | Ki [21] 0.501 µM | Ki [22] 0.00631 µM | Ki [23] 1 µM | Ki [25] 0.794 µM
inactive: Ki [11] > 1.58 µM | Ki [12] > 6.31 µM | Ki [13] > 1.58 µM | Ki [16] > 2 µM | Ki [18] > 1.58 µM | Ki [19] > 7.94 µM | Ki [24] > 3.16 µM

COC(=O)c1ccccc1NC1=C/C(=N\S(=O)(=O)c2cccs2)c2ccccc2C1=O
active: EC50 [26] 8.19 µM | IC50 [2] 68.4 µM | IC50 [27] 0.98 µM | IC50 [28] 5.16 µM

Source: ChEMBL document CHEMBL1201862, “PubChem BioAssay data set” (2004)
